Measured values reported in US7498349B2, “Biaryl compounds having anti-infective activity” (Genesoft Pharmaceuticals, Inc., priority 2002, dated 2009).
Values after ≈ are worked out from the molar mass of the structure shown. Read-outs that look alike come from different tables or passages of the source.

Key:
S. aureus ATCC 27660 = test: MIC, NCCLS broth microdilution assay; assay type: cell-based, Staphylococcus aureus; conditions: for MIC: Staphylococcus aureus, ATCC 27660 / MRSA, read-out: Minimum Inhibitory Concentration (MIC)
E. coli ATCC 25922 = test: MIC, NCCLS broth microdilution assay; assay type: cell-based, Escherichia coli; conditions: for MIC: Escherichia coli
E. faecalis ATCC 29212 = test: MIC, NCCLS broth microdilution assay; assay type: cell-based, Enterococcus faecalis; conditions: for MIC: Enterococcus faecalis
S. aureus ATCC 13709 = test: MIC, NCCLS broth microdilution assay; assay type: cell-based, Staphylococcus aureus; conditions: for MIC: Staphylococcus aureus, ATCC 13709 / MSSA, read-out: Minimum Inhibitory Concentration (MIC)
C. albicans ATCC 38247 = test: MIC, antifungal assay; assay type: cell-based, Candida albicans; conditions: for MIC: Candida albicans
S. aureus ATCC 33591 = test: MIC, NCCLS broth microdilution assay; assay type: cell-based, Staphylococcus aureus; conditions: for MIC: Staphylococcus aureus
B. cereus ATCC 11778 = test: MIC, NCCLS broth microdilution assay; assay type: cell-based, Bacillus cereus; conditions: for MIC: Bacillus cereus
S. pneumoniae ATCC 49619 = test: MIC, NCCLS broth microdilution assay; assay type: cell-based, Streptococcus pneumoniae; conditions: for MIC: Streptococcus pneumoniae
[1] = S. aureus ATCC 27660, methicillin resistant strain (MRSA)
[2] = S. aureus ATCC 13709, methicillin sensitive strain (MSSA)

Structure (SMILES)	Minimum Inhibitory Concentration (MIC) (S. aureus ATCC 27660; [1])	Minimum Inhibitory Concentration (MIC) (E. coli ATCC 25922; E. coli ATCC 25922)	Minimum Inhibitory Concentration (MIC) (E. faecalis ATCC 29212; E. faecalis ATCC 29212)	Minimum Inhibitory Concentration (MIC) (S. aureus ATCC 13709; [2])	Minimum Inhibitory Concentration (MIC) (C. albicans ATCC 38247; C. albicans ATCC 38247)	Minimum Inhibitory Concentration (MIC) (S. aureus ATCC 33591; S. aureus ATCC 33591)	Minimum Inhibitory Concentration (MIC) (B. cereus ATCC 11778; B. cereus ATCC 11778)	Minimum Inhibitory Concentration (MIC) (S. pneumoniae ATCC 49619; S. pneumoniae ATCC 49619)	other results
NCCOCCOCCNc1cc(Cl)ccc1C(=O)Nc1ccc(-c2cc3ccccc3o2)cc1 [Compound A-24]	+ (12 ≦ MIC ≦ 32)	>32 µg/mL	+ (12 ≦ MIC ≦ 32)	+ (12 ≦ MIC ≦ 32)	>32 µg/mL	+ (12 ≦ MIC ≦ 32)	>32 µg/mL	>32 µg/mL	
NCCNc1cc(Cl)ccc1C(=O)Nc1ccc(-c2cc3ccccc3o2)nc1 [Compound A-45]									MIC (S. aureus ATCC 27660): < 4 µg/mL; MIC (E. coli ATCC 25922; ATCC25922, read-out: Minimum Inhibitory Concentration (MIC)): > 32 µg/mL; MIC (E. faecalis ATCC 29212; ATCC29212, read-out: Minimum Inhibitory Concentration (MIC)): 4 to 12 µg/mL (≈ 9.83 to 29.5 µM); MIC (S. aureus ATCC 13709): < 4 µg/mL; MIC (C. albicans ATCC 38247; ATCC38247, read-out: Minimum Inhibitory Concentration (MIC)): 4 to 12 µg/mL (≈ 9.83 to 29.5 µM); MIC (S. aureus ATCC 33591; ATCC33591, read-out: Minimum Inhibitory Concentration (MIC)): < 4 µg/mL; MIC (B. cereus ATCC 11778; ATCC11778, read-out: Minimum Inhibitory Concentration (MIC)): 4 to 12 µg/mL (≈ 9.83 to 29.5 µM); MIC (S. pneumoniae ATCC 49619; ATCC49619, read-out: Minimum Inhibitory Concentration (MIC)): 12 to 32 µg/mL (≈ 29.5 to 78.6 µM)
CN(CCCN)CCCNc1ncccc1C(=O)Nc1ccc(-c2cc3ccccc3o2)nc1 [Compound A-39]									MIC (S. aureus ATCC 27660; [1]): 12 to 32 µg/mL (≈ 26.2 to 69.8 µM); MIC (E. coli ATCC 25922; ATCC25922, E. coli ATCC 25922, read-out: Minimum Inhibitory Concentration (MIC)): > 32 µg/mL; MIC (E. faecalis ATCC 29212; ATCC29212, E. faecalis ATCC 29212, read-out: Minimum Inhibitory Concentration (MIC)): 12 to 32 µg/mL (≈ 26.2 to 69.8 µM); MIC (S. aureus ATCC 13709; [2]): 12 to 32 µg/mL (≈ 26.2 to 69.8 µM); MIC (C. albicans ATCC 38247; ATCC38247, C. albicans ATCC 38247, read-out: Minimum Inhibitory Concentration (MIC)): > 32 µg/mL; MIC (S. aureus ATCC 33591; ATCC33591, S. aureus ATCC 33591, read-out: Minimum Inhibitory Concentration (MIC)): 12 to 32 µg/mL (≈ 26.2 to 69.8 µM); MIC (B. cereus ATCC 11778; ATCC11778, B. cereus ATCC 11778, read-out: Minimum Inhibitory Concentration (MIC)): 12 to 32 µg/mL (≈ 26.2 to 69.8 µM); MIC (S. pneumoniae ATCC 49619; ATCC49619, S. pneumoniae ATCC 49619, read-out: Minimum Inhibitory Concentration (MIC)): 12 to 32 µg/mL (≈ 26.2 to 69.8 µM)
O=C(Nc1ccc(-c2cc3ccccc3[nH]2)cc1)c1nsc(NCCN2CCOCC2)c1Cl [Compound A-60]	>32 µg/mL	>32 µg/mL	>32 µg/mL	>32 µg/mL	>32 µg/mL	>32 µg/mL	>32 µg/mL	>32 µg/mL	
NCCCCNc1ncccc1C(=O)Nc1ccc(-c2cc3ccccc3s2)nc1 [Compound A-75]	+++ (MIC ≦ 4)	>32 µg/mL	+++ (MIC ≦ 4)	+++ (MIC ≦ 4)	>32 µg/mL	+++ (MIC ≦ 4)	+++ (MIC ≦ 4)	+ (12 ≦ MIC ≦ 32)	
O=C(Nc1ccc(-c2cc3ccccc3[nH]2)cc1)c1nsc(NCCN2CCCC2)c1Cl [Compound A-58]	++ (4 < MIC < 12)	>32 µg/mL	++ (4 < MIC < 12)	+ (12 ≦ MIC ≦ 32)	+++ (MIC ≦ 4)	++ (4 < MIC < 12)	+ (12 ≦ MIC ≦ 32)	+ (12 ≦ MIC ≦ 32)	
Cc1cc(NC(=O)c2cccnc2NCCN2CCNCC2)ccc1-c1cc2ccccc2o1 [Compound A-28]	++ (4 < MIC < 12)	>32 µg/mL	++ (4 < MIC < 12)	++ (4 < MIC < 12)	+ (12 ≦ MIC ≦ 32)	++ (4 < MIC < 12)	+ (12 ≦ MIC ≦ 32)	+ (12 ≦ MIC ≦ 32)	
